From ChEMBL document CHEMBL1137252, “Substituted 5-benzyl-2-phenyl-5H-imidazo[4,5-c]pyridines: a new class of pestivirus inhibitors” (Bioorg Med Chem Lett, 2006)
pEC50: −log10 of the molar value. Calls of active or inactive are those of the source. No rule for the calls is given here.

How the values were obtained:
[1] = Selectivity index, CC50 for MDBK cells/EC50 for BVDV NADL; type: functional
[2] = test system: Bovine viral diarrhea virus 1; test: Antiviral activity against BVDV NADL in MDBK cells; type: functional, organism-based; details: Bovine viral diarrhea virus isolates and strains
[3] = Cytotoxicity against MDBK cells; type: cell-based, Bos taurus; details: cattle
Hepatitis C virus = test: Antiviral activity against HCV 1a; type: functional, organism-based; details: Hepacivirus hominis; subtype 1a

Row | Structure (SMILES) | Ratio CC50/EC50 [1] | pEC50 [2] | CC50 [3] | Activity (Hepatitis C virus)
1 | c1ccc(-c2nc3ccn(CC4CCCCC4)cc-3n2)cc1 | >118 | 6.07 | > 100 µM | inactive
2 | CC(c1ccccc1)n1ccc2nc(-c3ccccc3)nc-2c1 (centres undefined) | >48 | 5.68 | > 100 µM | inactive
3 | c1ccc(-c2nc3ccn(Cc4ccc5ccccc5c4)cc-3n2)cc1 | 13 | 5.30 | 67 µM | inactive
4 | CC(C)CCn1ccc2nc(-c3ccccc3)nc-2c1 | >26 | 5.42 | > 100 µM | inactive
5 | Fc1cccc(F)c1Cn1c(-c2c(F)cccc2F)nc2ccncc21 | <=2 | ≤ 4.32 | 99 µM | inactive
6 | COc1cccc(Cn2ccc3nc(-c4ccccc4)nc-3c2)c1 | >200 | 6.30 | > 100 µM | inactive
7 | c1ccc(-c2nc3ccn(Cc4cccc5ccccc45)cc-3n2)cc1 | 1017 | 7.22 | 61 µM | inactive
8 | c1ccc(Cn2ccc3nc(-c4ccccc4)nc-3c2)cc1 | >400 | 6.60 | > 100 µM | inactive
9 | FC(F)(F)c1ccccc1Cn1ccc2nc(-c3ccccc3)nc-2c1 | >67 | 5.82 | > 100 µM | inactive
10 | Cc1ccc(Cn2ccc3nc(-c4ccccc4)nc-3c2)cc1 | >769 | 6.89 | > 100 µM | inactive
11 | COc1ccccc1Cn1ccc2nc(-c3ccccc3)nc-2c1 | >370 | 6.57 | > 100 µM | inactive
12 | c1ccc(-c2ccc(Cn3ccc4nc(-c5ccccc5)nc-4c3)cc2)cc1 | 225 | 7.10 | 18 µM | inactive
13 | c1ccc(CCCCn2ccc3nc(-c4ccccc4)nc-3c2)cc1 | 45 | 5.68 | 95 µM | inactive
14 | c1ccc(-c2nc3ccn(Cc4cccnc4)cc-3n2)cc1 | >59 | 5.77 | > 100 µM | inactive
15 | CCn1ccc2nc(-c3ccccc3)nc-2c1 | >7 | 4.82 | > 100 µM | inactive
16 | Clc1cccc(Cn2ccc3nc(-c4ccccc4)nc-3c2)c1 | >476 | 6.68 | > 100 µM | inactive
17 | Fc1cccc(F)c1Cn1ccc2nc(-c3c(F)cccc3F)nc-2c1 | >65 | 5.82 | > 100 µM | inactive
18 | O=C(O)c1ccc(Cn2ccc3nc(-c4ccccc4)nc-3c2)cc1 |  | < 4.00 | > 100 µM | inactive
19 | CC(C)N(CCn1ccc2nc(-c3ccccc3)nc-2c1)C(C)C | >45 | 5.66 | > 100 µM | inactive
20 | Fc1cccc(Cn2ccc3nc(-c4ccccc4)nc-3c2)c1 | >667 | 6.82 | > 100 µM | inactive
21 | FC(F)(F)c1ccc(Cn2ccc3nc(-c4ccccc4)nc-3c2)cc1 | 455 | 6.66 | 84 µM | inactive
22 | FC(F)(F)c1cccc(Cn2ccc3nc(-c4ccccc4)nc-3c2)c1 | 408 | 6.62 | 98 µM | inactive
23 | Fc1cccc(F)c1Cn1cccc2nc(-c3c(F)cccc3F)nc1-2 | <=3 | ≤ 4.49 | > 100 µM | inactive
24 | c1ccc(-c2nc3ccn(Cc4ccncc4)cc-3n2)cc1 | >50 | 5.70 | > 100 µM | inactive
25 | N#Cc1ccc(Cn2ccc3nc(-c4ccccc4)nc-3c2)cc1 | >435 | 6.64 | > 100 µM | inactive
26 | Cc1ccn(Cc2c(F)cccc2F)c2nc(-c3c(F)cccc3F)nc1-2 | <=1.1 | ≤ 4.06 | > 100 µM | inactive
27 | N#Cc1ccccc1Cn1ccc2nc(-c3ccccc3)nc-2c1 | >132 | 6.12 | > 100 µM | inactive

Row | Structure (SMILES) | Ratio CC50/EC50 [1] | pEC50 [2] | CC50 [3] | Activity (Hepatitis C virus)
28 | Brc1cccc(Cn2ccc3nc(-c4ccccc4)nc-3c2)c1 | 304 | 6.55 | 85 µM | inactive
29 | Clc1ccc(Cn2ccc3nc(-c4ccccc4)nc-3c2)cc1 | >1250 | 7.10 | > 100 µM | inactive
30 | Fc1cccc(F)c1-c1nc2ccn(Cc3ccccc3)cc-2n1 | >25 | 5.40 | > 100 µM | inactive
31 | Fc1cccc(F)c1Cn1ccc2nc(-c3ccccc3)nc-2c1 | >435 | 6.64 | > 100 µM | inactive
32 | CC(C)=CCn1ccc2nc(-c3ccccc3)nc-2c1 | >33 | 5.52 | > 100 µM | inactive
33 | CCC(CC)Cn1ccc2nc(-c3ccccc3)nc-2c1 | >52 | 5.72 | > 100 µM | inactive
34 | Ic1ccc(Cn2ccc3nc(-c4ccccc4)nc-3c2)cc1 | 183 | 6.92 | 22 µM | inactive
35 | Fc1ccc(Cn2ccc3nc(-c4ccccc4)nc-3c2)cc1 | >833 | 6.92 | > 100 µM | inactive
36 | CC(C)(C)c1ccc(Cn2ccc3nc(-c4ccccc4)nc-3c2)cc1 | 45 | 6.31 | 22 µM | inactive
37 | Cc1ccccc1Cn1ccc2nc(-c3ccccc3)nc-2c1 | >333 | 6.52 | > 100 µM | inactive
38 | Fc1ccccc1Cn1ccc2nc(-c3ccccc3)nc-2c1 | >1000 | 7.00 | > 100 µM | inactive
39 | c1ccc(CCCn2ccc3nc(-c4ccccc4)nc-3c2)cc1 | >143 | 6.15 | > 100 µM | inactive
40 | C(=C\c1ccccc1)/Cn1ccc2nc(-c3ccccc3)nc-2c1 | 459 | 6.77 | 78 µM | inactive
41 | Brc1ccc(Cn2ccc3nc(-c4ccccc4)nc-3c2)cc1 | 1186 | 7.15 |  | inactive
42 | Fc1cccc(F)c1Cn1c(-c2c(F)cccc2F)nc2cnccc21 | >6 | 4.79 | > 100 µM | inactive
43 | Brc1ccccc1Cn1ccc2nc(-c3ccccc3)nc-2c1 | >357 | 6.55 | > 100 µM | inactive
44 | Clc1ccccc1Cn1ccc2nc(-c3ccccc3)nc-2c1 | >526 | 6.72 | > 100 µM | inactive
45 | c1ccc(OCCn2ccc3nc(-c4ccccc4)nc-3c2)cc1 | >370 | 6.57 | > 100 µM | inactive
46 | COc1ccc(Cn2ccc3nc(-c4ccccc4)nc-3c2)cc1 | >714 | 6.85 | > 100 µM | inactive
47 | Clc1ccc(Cn2ccc3nc(-c4ccccc4)nc-3c2)cc1Cl | 645 | 6.96 | 71 µM | inactive
48 | FC(F)(F)Oc1ccc(Cn2ccc3nc(-c4ccccc4)nc-3c2)cc1 | 244 | 6.57 | 66 µM | inactive
49 | c1ccc(-c2nc3ccn(Cc4ccccn4)cc-3n2)cc1 | >63 | 5.80 | > 100 µM | inactive
50 | Fc1cccc(F)c1-c1nc2ccn(CCc3ccccc3)cc-2n1 | >2 | 4.24 | > 100 µM | inactive
51 | c1ccc(-c2nc3cc[nH]cc-3n2)cc1 | >10 | 5.00 | > 100 µM | inactive
52 | Cc1cccc(Cn2ccc3nc(-c4ccccc4)nc-3c2)c1 | >167 | 6.22 | > 100 µM | inactive
53 | N#Cc1cccc(Cn2ccc3nc(-c4ccccc4)nc-3c2)c1 | >25 | 5.40 | > 100 µM | inactive
54 | Clc1ccc(Cn2ccc3nc(-c4ccccc4)nc-3c2)s1 | >476 | 6.68 | > 100 µM | inactive
